Assay results: PubChem BioAssay AID1963430 (Molecular Pharmacology Branch, DTP, NCI, 2024)

Test system: 521955-158-R2-J5-PDC complex spheroid growth, % test/control
Test: Anticancer human tumor 521955-158-R2-J5-PDC patient-derived pancreatic carcinoma cell line growth inhibition [Asc]
Details: for IC50: curve of first compound; for viability, T/C: stronger effect = lower value
In short: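 Tumor cells were grown as multicellular spheroids with stromal HUVEC and mesenchymal stem cells and treated singly or in combination. Concentrations fell in half-log steps from the clinical Cmax, or from 10 microM where none was known.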

[1] = second compound 0.01 µM, first compound 0.0316 µM
[2] = second compound 0.01 µM, first compound 0.1 µM
[3] = second compound 0.01 µM, first compound 0.316 µM
[4] = second compound 0.01 µM, first compound 1 µM
[5] = second compound 0.01 µM, first compound 3.16 µM
[6] = second compound 0.01 µM, first compound 10 µM
[7] = second compound 0.0316 µM, first compound 0.0316 µM
[8] = second compound 0.0316 µM, first compound 0.1 µM
[9] = second compound 0.0316 µM, first compound 0.316 µM
[10] = second compound 0.0316 µM, first compound 1 µM
[11] = second compound 0.0316 µM, first compound 3.16 µM
[12] = second compound 0.0316 µM, first compound 10 µM
[13] = second compound 0.1 µM, first compound 0.0316 µM
[14] = second compound 0.1 µM, first compound 0.1 µM
[15] = second compound 0.1 µM, first compound 0.316 µM
[16] = second compound 0.1 µM, first compound 1 µM
[17] = second compound 0.1 µM, first compound 3.16 µM
[18] = second compound 0.1 µM, first compound 10 µM
[19] = second compound 0.316 µM, first compound 0.0316 µM
[20] = second compound 0.316 µM, first compound 0.1 µM
[21] = second compound 0.316 µM, first compound 0.316 µM
[22] = second compound 0.316 µM, first compound 1 µM
[23] = second compound 0.316 µM, first compound 3.16 µM
[24] = second compound 0.316 µM, first compound 10 µM
[25] = second compound 1 µM, first compound 0.0316 µM
[26] = second compound 1 µM, first compound 0.1 µM
[27] = second compound 1 µM, first compound 0.316 µM
[28] = second compound 1 µM, first compound 1 µM
[29] = second compound 1 µM, first compound 3.16 µM
[30] = second compound 1 µM, first compound 10 µM
[31] = second compound 0.01 µM, first compound 0.00949 µM
[32] = second compound 0.01 µM, first compound 0.03 µM
[33] = second compound 0.01 µM, first compound 0.0949 µM
[34] = second compound 0.01 µM, first compound 0.3 µM
[35] = second compound 0.01 µM, first compound 0.949 µM
[36] = second compound 0.01 µM, first compound 3 µM
[37] = second compound 0.0316 µM, first compound 0.00949 µM
[38] = second compound 0.0316 µM, first compound 0.03 µM
[39] = second compound 0.0316 µM, first compound 0.0949 µM
[40] = second compound 0.0316 µM, first compound 0.3 µM
[41] = second compound 0.0316 µM, first compound 0.949 µM
[42] = second compound 0.0316 µM, first compound 3 µM
[43] = second compound 0.1 µM, first compound 0.00949 µM
[44] = second compound 0.1 µM, first compound 0.03 µM
[45] = second compound 0.1 µM, first compound 0.0949 µM
[46] = second compound 0.1 µM, first compound 0.3 µM
[47] = second compound 0.1 µM, first compound 0.949 µM
[48] = second compound 0.1 µM, first compound 3 µM
[49] = second compound 0.316 µM, first compound 0.00949 µM
[50] = second compound 0.316 µM, first compound 0.03 µM
[51] = second compound 0.316 µM, first compound 0.0949 µM
[52] = second compound 0.316 µM, first compound 0.3 µM
[53] = second compound 0.316 µM, first compound 0.949 µM
[54] = second compound 0.316 µM, first compound 3 µM
[55] = second compound 1 µM, first compound 0.00949 µM
[56] = second compound 1 µM, first compound 0.03 µM
[57] = second compound 1 µM, first compound 0.0949 µM
[58] = second compound 1 µM, first compound 0.3 µM
[59] = second compound 1 µM, first compound 0.949 µM
[60] = second compound 1 µM, first compound 3 µM
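Also: spheroids exposed to agents for 7 days before readout.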
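For viability, T/C in this document: 100% = DMSO vehicle control viability.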

Work on `C#Cc1c(F)ccc2cc(O)cc(-c3ncc4c(N5CC6CCC(C5)N6)nc(OCC56CCCN5CC(F)C6)nc4c3F)c12` (stereo not given) + CNC(C)C(=O)NC1CN(S(=O)(=O)c2cccc(S(=O)(=O)N3CCC4CCC(C(=O)NC(c5ccccc5)c5ccccc5)N4C(=O)C(NC(=O)C(C)NC)C3)c2)CCC2CCC(C(=O)NC(c3ccccc3)c3ccccc3)N2C1=O yielded an IC50 (second compound 0.01 µM) of less than 0.0316 µM, an IC50 (second compound 0.0316 µM) of less than 0.0316 µM and an IC50 (second compound 0.1 µM) of less than 0.0316 µM. For the same molecule, the IC50 (second compound 0.316 µM) was less than 0.0316 µM, the IC50 (second compound 1 µM) was less than 0.0316 µM and the viability, T/C [1] was 22.8%. It also gave a viability, T/C [2] of 22.5%, a viability, T/C [3] of 20.6% and a viability, T/C [4] of 16.3%. It also gave a viability, T/C [5] of 19.2%, a viability, T/C [6] of 18.2% and a viability, T/C [7] of 20.3%. The viability, T/C [8] was 25.8%, the viability, T/C [9] was 19.4% and the viability, T/C [10] was 13.4%. It also gave a viability, T/C [11] of 17.7%, a viability, T/C [12] of 19.9% and a viability, T/C [13] of 22.1%. The viability, T/C [14] was 16.6%, the viability, T/C [15] was 21.6% and the viability, T/C [16] was 15.7%. The viability, T/C [17] was 18.3%, the viability, T/C [18] was 17% and the viability, T/C [19] was 20.8%. It also gave a viability, T/C [20] of 17.1%, a viability, T/C [21] of 18.1% and a viability, T/C [22] of 22.8%. For the same molecule, the viability, T/C [23] was 17.3%, the viability, T/C [24] was 13.9% and the viability, T/C [25] was 21.6%. It also gave a viability, T/C [26] of 18.7%, a viability, T/C [27] of 27.5% and a viability, T/C [28] of 26.6%. It also gave a viability, T/C [29] of 19.7% and a viability, T/C [30] of 16.8%.

`C=C(F)C(=O)N1CCN(c2nc(OCC3CCCN3C)nc3c2CCN(c2cccc4cccc(Cl)c24)C3)CC1CC#N` (stereo not given) + CNC(C)C(=O)NC1CN(S(=O)(=O)c2cccc(S(=O)(=O)N3CCC4CCC(C(=O)NC(c5ccccc5)c5ccccc5)N4C(=O)C(NC(=O)C(C)NC)C3)c2)CCC2CCC(C(=O)NC(c3ccccc3)c3ccccc3)N2C1=O showed an IC50 (second compound 0.01 µM) of 5.38 µM, an IC50 (second compound 0.0316 µM) of 5.41 µM and an IC50 (second compound 0.1 µM) of 5.72 µM. The IC50 (second compound 0.316 µM) was 5.6 µM, the IC50 (second compound 1 µM) was 5.44 µM and the viability, T/C [1] was 87.1%. For the same molecule, the viability, T/C [2] was 93.1%, the viability, T/C [3] was 100% and the viability, T/C [4] was 98.4%. For the same molecule, the viability, T/C [5] was 92.6%, the viability, T/C [6] was 0.23% and the viability, T/C [7] was 100%. For the same molecule, the viability, T/C [8] was 95.6%, the viability, T/C [9] was 81.3% and the viability, T/C [10] was 90.6%. For the same molecule, the viability, T/C [11] was 99.7%, the viability, T/C [12] was 0.23% and the viability, T/C [13] was 111%. The viability, T/C [14] was 106%, the viability, T/C [15] was 79.8% and the viability, T/C [16] was 93.4%. For the same molecule, the viability, T/C [17] was 98.2%, the viability, T/C [18] was 5.12% and the viability, T/C [19] was 119%. It also gave a viability, T/C [20] of 103%, a viability, T/C [21] of 84% and a viability, T/C [22] of 91.1%. For the same molecule, the viability, T/C [23] was 99%, the viability, T/C [24] was 0.31% and the viability, T/C [25] was 85.9%. The viability, T/C [26] was 102%, the viability, T/C [27] was 92% and the viability, T/C [28] was 94.7%. For the same molecule, the viability, T/C [29] was 93% and the viability, T/C [30] was 1.89%.

Molecule `CCN1C(C(=O)NC23CCC(C(=O)O)(CC2)CC3)C(c2cccc(Cl)c2F)C2(C(=O)Nc3cc(Cl)ccc32)C12CCCCC2` (stereo not given) + CNC(C)C(=O)NC1CN(S(=O)(=O)c2cccc(S(=O)(=O)N3CCC4CCC(C(=O)NC(c5ccccc5)c5ccccc5)N4C(=O)C(NC(=O)C(C)NC)C3)c2)CCC2CCC(C(=O)NC(c3ccccc3)c3ccccc3)N2C1=O has an IC50 (second compound 0.01 µM) greater than 3 µM, an IC50 (second compound 0.0316 µM) greater than 3 µM and an IC50 (second compound 0.1 µM) greater than 3 µM. It also gave an IC50 (second compound 0.316 µM) greater than 3 µM, an IC50 (second compound 1 µM) greater than 3 µM and a viability, T/C [31] of 107%. The viability, T/C [32] was 112%, the viability, T/C [33] was 90.5% and the viability, T/C [34] was 91.9%. The viability, T/C [35] was 112%, the viability, T/C [36] was 116% and the viability, T/C [37] was 119%. The viability, T/C [38] was 114%, the viability, T/C [39] was 100% and the viability, T/C [40] was 114%. It also gave a viability, T/C [41] of 97.1%, a viability, T/C [42] of 97% and a viability, T/C [43] of 91.2%. It also gave a viability, T/C [44] of 116%, a viability, T/C [45] of 97.2% and a viability, T/C [46] of 101%. For the same molecule, the viability, T/C [47] was 114%, the viability, T/C [48] was 118% and the viability, T/C [49] was 94.9%. The viability, T/C [50] was 106%, the viability, T/C [51] was 106% and the viability, T/C [52] was 98.6%. For the same molecule, the viability, T/C [53] was 96.1%, the viability, T/C [54] was 119% and the viability, T/C [55] was 83.3%. It also gave a viability, T/C [56] of 108%, a viability, T/C [57] of 115% and a viability, T/C [58] of 103%. The viability, T/C [59] was 105% and the viability, T/C [60] was 108%.

For `Cc1nc(N2CCC3(CC2)COC(C)C3N)c(CO)nc1Sc1ccnc(N)c1Cl` (stereo not given) + CNC(C)C(=O)NC1CN(S(=O)(=O)c2cccc(S(=O)(=O)N3CCC4CCC(C(=O)NC(c5ccccc5)c5ccccc5)N4C(=O)C(NC(=O)C(C)NC)C3)c2)CCC2CCC(C(=O)NC(c3ccccc3)c3ccccc3)N2C1=O, the IC50 (second compound 0.01 µM) was 0.613 µM, the IC50 (second compound 0.0316 µM) was 0.888 µM and the IC50 (second compound 0.1 µM) was 0.271 µM. The IC50 (second compound 0.316 µM) was greater than 3 µM, the IC50 (second compound 1 µM) was 1.48 µM and the viability, T/C [31] was 86.7%. For the same molecule, the viability, T/C [32] was 67.7%, the viability, T/C [33] was 64.6% and the viability, T/C [34] was 49%. It also gave a viability, T/C [35] of 48.9%, a viability, T/C [36] of 46.2% and a viability, T/C [37] of 83.6%. It also gave a viability, T/C [38] of 72%, a viability, T/C [39] of 66.7% and a viability, T/C [40] of 46%. For the same molecule, the viability, T/C [41] was 50.4%, the viability, T/C [42] was 52.6% and the viability, T/C [43] was 84.3%. It also gave a viability, T/C [44] of 68.1%, a viability, T/C [45] of 58.9% and a viability, T/C [46] of 43%. For the same molecule, the viability, T/C [47] was 52.1%, the viability, T/C [48] was 46.9% and the viability, T/C [49] was 93.3%. For the same molecule, the viability, T/C [50] was 65.3%, the viability, T/C [51] was 64.4% and the viability, T/C [52] was 51.9%. For the same molecule, the viability, T/C [53] was 53.9%, the viability, T/C [54] was 51.6% and the viability, T/C [55] was 76.7%. It also gave a viability, T/C [56] of 59.3%, a viability, T/C [57] of 62.2% and a viability, T/C [58] of 50.9%. For the same molecule, the viability, T/C [59] was 57.2% and the viability, T/C [60] was 45%.
